Assays:
inguinal fat pad = settings: 0.2 ml s.c. once into inguinal fat pad, 8 days post-injection
sole of the rat paws = test: Measurement of skin lesion (erythema) on rat paw; type: in vivo, Sprague Dawley rats; settings: for skin lesion (erythema) in words: 2 hours after administration;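 on grade of skin lesion (erythema), 1 hour after administration: grades − to ++++ mean no to extremely severe erythema versus before injection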;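 on grade of skin lesion (erythema), 2 hours after administration: grades − to ++++ mean no to extremely severe erythema versus before injection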;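 on grade of skin lesion (erythema), Immediately after administration: grades − to ++++ mean no to extremely severe erythema versus before injection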
Protocol: (§1) To evaluate the degree of edema, each test compositions described above were injected into the paw of the rats. Specifically, male Sprague Dawley rats (6 weeks old) were purchased and used after one week of adaptation. The rats (body weight: 170˜200 g) were randomly selected and the thickness of the rat paw were measured with a caliper before the administration of the test compositions. In order to observe the edema, 0.1 ml of PBS and the various test compositions were administered to the paws of the rats. Measurements of the […] were performed by a caliper immediately before the injection, immediately after the injection, and 1 or 2 hours after the injection. In addition, when the thickness was measured, the skin lesion of the injection site was observed by photographing the sole of the paw (using a 4×4 cm scale).
The grades of skin lesion were evaluated as 0 to 4 grades.

[1] = Formulation stability of PPC injectable preparations: property, transparency, particle size, pH; settings: for bile acid/PPC molar ratio below which a substantially stable formulation did not occur: PPC 5.0%; for bile acid concentration at which stable injectable preparations can be made: based on PPC 5.0%
paw of the rats = test: Rat paw edema; type: in vivo, Sprague Dawley rats; settings: for degree of edema in words: 2 hours after administration, rat paw; for degree of edema, 1 hour after administration / degree of edema, 2 hours after administration / degree of edema, Immediately after administration: 0.1 ml into rat paw
Protocol: as §1
The degree of edema was evaluated as 0 to 4 grades.

[2] = test system: tissues of the injected area (rat paw); test: H&E staining histological test (inflammation) of injected rat paw; type: in vivo, Sprague Dawley rats; settings: for Inflammation (H&E), BA % (w/v) 1.0: bile acid single composition 1.0% (w/v)
Protocol: The tissues of the injected area were dissected, fixed with 10% formalin, and then the specimen was prepared and images were captured using an optical microscope. The degree of inflammation was evaluated as follows.

[3] = bile acid single composition 1.0% (w/v)
[4] = bile acid single composition 2.5% (w/v)
[5] = bile acid single composition 5.0% (w/v)
[6] = bile acid single composition 7.5% (w/v)

Row | Compound | grade of skin lesion (erythema), 1 hour after administration (sole of the rat paws; [3]) | grade of skin lesion (erythema), 2 hours after administration (sole of the rat paws; [3]) | grade of skin lesion (erythema), Immediately after administration (sole of the rat paws; [3]) | grade of skin lesion (erythema), 1 hour after administration (sole of the rat paws; [4]) | grade of skin lesion (erythema), 2 hours after administration (sole of the rat paws; [4]) | grade of skin lesion (erythema), Immediately after administration (sole of the rat paws; [4]) | grade of skin lesion (erythema), 1 hour after administration (sole of the rat paws; [5]) | grade of skin lesion (erythema), 2 hours after administration (sole of the rat paws; [5]) | grade of skin lesion (erythema), Immediately after administration (sole of the rat paws; [5]) | grade of skin lesion (erythema), 1 hour after administration (sole of the rat paws; [6]) | grade of skin lesion (erythema), 2 hours after administration (sole of the rat paws; [6]) | grade of skin lesion (erythema), Immediately after administration (sole of the rat paws; [6]) | bile acid/PPC molar ratio below which a substantially stable formulation did not occur [1] | bile acid concentration at which stable injectable preparations can be made [1] | degree of edema, 1 hour after administration (paw of the rats; [3]) | degree of edema, 2 hours after administration (paw of the rats; [3]) | degree of edema, Immediately after administration (paw of the rats; [3]) | degree of edema, 1 hour after administration (paw of the rats; [4]) | degree of edema, 2 hours after administration (paw of the rats; [4]) | degree of edema, Immediately after administration (paw of the rats; [4]) | further results
1 | CC(C)NCC(O)c1ccc(O)c(O)c1 (stereo not shown) [Isuprel] | – | – | – | – | – | – | – | – | – | – | – | – | – | – | – | – | – | – | – | – | histological change of adipocytes in fat tissue (inguinal fat pad): size of the adipocytes was reduced
2 | C[C@H](CCC(=O)NCC(=O)O)[C@H]1CC[C@H]2[C@@H]3CCC4C[C@H](O)CC[C@]4(C)[C@H]3C[C@H](O)[C@]12C (stereo partly drawn) [GDCA, 2-[[(4R)-4-[(3R,8R,9S,10S,12S,13R,14S,17R)-3,12-dihydroxy-10,13-dimethyl-2,3,4,5,6,7,8,9,11,12,14,15,16,17-tetradecahydro-1H-cyclopenta[a]phenanthren-17-yl]pentanoyl]amino]acetic acid] | ++ | ++ | ++ | ++++ | ++++ | ++ | ++++ | ++++ | ++ | ++++ | ++++ | ++ | less than 0.87 | ≥ 2.4% | +++ (severe edema [+++, (the degree of swelling was 40-60% compared to before the injection)]) | ++ (moderate edema [++, (the degree of swelling was 20-40% compared to before the injection)]) | ++ (moderate edema [++, (the degree of swelling was 20-40% compared to before the injection)]) | +++ (severe edema [+++, (the degree of swelling was 40-60% compared to before the injection)]) | +++ (severe edema [+++, (the degree of swelling was 40-60% compared to before the injection)]) | ++ (moderate edema [++, (the degree of swelling was 20-40% compared to before the injection)]) | skin lesion (erythema) in words (sole of the rat paws; listed as GDCA 1.0%): Moderate; skin lesion (erythema) in words (sole of the rat paws; listed as GDCA 2.5%): “severe” and “extremely severe”; degree of edema in words (paw of the rats; listed as GDCA 1.0%): moderate; degree of edema in words (paw of the rats; listed as GDCA 2.5%): “severe” and “extremely severe”; degree of edema, 1 hour after administration (paw of the rats; [5]): ++++ (extremely severe edema [++++, (the degree of swelling was 60% or more compared to before the injection)]); degree of edema, 2 hours after administration (paw of the rats; [5]): ++++ (extremely severe edema [++++, (the degree of swelling was 60% or more compared to before the injection)]); degree of edema, Immediately after administration (paw of the rats; [5]): ++ (moderate edema [++, (the degree of swelling was 20-40% compared to before the injection)]); degree of edema, 1 hour after administration (paw of the rats; [6]): ++++ (extremely severe edema [++++, (the degree of swelling was 60% or more compared to before the injection)]); degree of edema, 2 hours after administration (paw of the rats; [6]): ++++ (extremely severe edema [++++, (the degree of swelling was 60% or more compared to before the injection)]); degree of edema, Immediately after administration (paw of the rats; [6]): ++ (moderate edema [++, (the degree of swelling was 20-40% compared to before the injection)]); Inflammation (H&E), BA % (w/v) 1.0 ([2]; injected rat paw): ++; Inflammation (H&E), BA % (w/v) 2.5 ([2]; bile acid single composition 2.5% (w/v), injected rat paw): +++; degree of inflammation (H&E) in words ([2]; rats sacrificed at 3 hours, injected paw): Moderate
3 | C[C@H](CCC(=O)O)[C@H]1CC[C@H]2[C@@H]3C[C@H](O)[C@@H]4C[C@H](O)CC[C@]4(C)[C@H]3CC[C@]12C [HDCA, (4R)-4-[(3R,5R,6S,8S,9S,10R,13R,14S,17R)-3,6-dihydroxy-10,13-dimethyl-2,3,4,5,6,7,8,9,11,12,14,15,16,17-tetradecahydro-1H-cyclopenta[a]phenanthren-17-yl]pentanoic acid] | + | + | + | +++ | +++ | + | ++++ | ++++ | + | ++++ | ++++ | ++ | less than 0.95 | ≥ 2.3% | ++ (moderate edema [++, (the degree of swelling was 20-40% compared to before the injection)]) | +++ (severe edema [+++, (the degree of swelling was 40-60% compared to before the injection)]) | ++ (moderate edema [++, (the degree of swelling was 20-40% compared to before the injection)]) | ++ (moderate edema [++, (the degree of swelling was 20-40% compared to before the injection)]) | +++ (severe edema [+++, (the degree of swelling was 40-60% compared to before the injection)]) | ++ (moderate edema [++, (the degree of swelling was 20-40% compared to before the injection)]) | skin lesion (erythema) in words (sole of the rat paws; listed as HDCA 1.0%): Mild; skin lesion (erythema) in words (sole of the rat paws; listed as HDCA 2.5%): “severe” and “extremely severe”; degree of edema in words (paw of the rats; listed as HDCA 2.5%): “severe” and “extremely severe”; degree of edema, 1 hour after administration (paw of the rats; [5]): ++++ (extremely severe edema [++++, (the degree of swelling was 60% or more compared to before the injection)]); degree of edema, 2 hours after administration (paw of the rats; [5]): ++++ (extremely severe edema [++++, (the degree of swelling was 60% or more compared to before the injection)]); degree of edema, Immediately after administration (paw of the rats; [5]): ++ (moderate edema [++, (the degree of swelling was 20-40% compared to before the injection)]); degree of edema, 1 hour after administration (paw of the rats; [6]): ++++ (extremely severe edema [++++, (the degree of swelling was 60% or more compared to before the injection)]); degree of edema, 2 hours after administration (paw of the rats; [6]): ++++ (extremely severe edema [++++, (the degree of swelling was 60% or more compared to before the injection)]); degree of edema, Immediately after administration (paw of the rats; [6]): ++ (moderate edema [++, (the degree of swelling was 20-40% compared to before the injection)]); Inflammation (H&E), BA % (w/v) 1.0 ([2]; injected rat paw): +++

— US11298314B2, “Injectable composition for localized fat reduction without pain, edema, and side effects, and method for preparing same” (AMI PHARM CO., LTD., priority 2017, dated 2022)
